Data as given in PMC9329436, “Optimization of the 4-anilinoquin(az)oline scaffold as epidermal growth factor receptor (EGFR) inhibitors for chordoma utilizing a toxicology profiling assay platform” (Scientific Reports, 2022).
Like-named read-outs stand apart in the source and are kept apart here.

Experiments:
Type in all cases: biochemical
[1] = molecular target: T1, 320 wild-type protein kinases (Homo sapiens, UniProt O00141); settings: kinase SGK1, singlicate
T1 sequence (O00141 1-431): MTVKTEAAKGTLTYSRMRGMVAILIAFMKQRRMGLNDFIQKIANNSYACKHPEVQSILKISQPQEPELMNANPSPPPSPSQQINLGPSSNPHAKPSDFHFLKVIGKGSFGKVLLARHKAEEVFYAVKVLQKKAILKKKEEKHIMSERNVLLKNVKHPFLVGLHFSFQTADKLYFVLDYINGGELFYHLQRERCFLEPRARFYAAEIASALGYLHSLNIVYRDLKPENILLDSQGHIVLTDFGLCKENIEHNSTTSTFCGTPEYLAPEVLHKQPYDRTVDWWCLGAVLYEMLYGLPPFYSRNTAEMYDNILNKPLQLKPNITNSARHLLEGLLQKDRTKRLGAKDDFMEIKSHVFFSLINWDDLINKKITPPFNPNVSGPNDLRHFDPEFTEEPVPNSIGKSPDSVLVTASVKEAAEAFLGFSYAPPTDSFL
Excerpt: (§1) Table S4. Profiling of two compounds at two concentrations against 320 wild-type protein kinases; singlicate measurement; Residual activities (% of control).

[2] = molecular target: T2, 320 wild-type protein kinases (Homo sapiens, UniProt O60285); settings: singlicate
T2 sequence (O60285 1-661): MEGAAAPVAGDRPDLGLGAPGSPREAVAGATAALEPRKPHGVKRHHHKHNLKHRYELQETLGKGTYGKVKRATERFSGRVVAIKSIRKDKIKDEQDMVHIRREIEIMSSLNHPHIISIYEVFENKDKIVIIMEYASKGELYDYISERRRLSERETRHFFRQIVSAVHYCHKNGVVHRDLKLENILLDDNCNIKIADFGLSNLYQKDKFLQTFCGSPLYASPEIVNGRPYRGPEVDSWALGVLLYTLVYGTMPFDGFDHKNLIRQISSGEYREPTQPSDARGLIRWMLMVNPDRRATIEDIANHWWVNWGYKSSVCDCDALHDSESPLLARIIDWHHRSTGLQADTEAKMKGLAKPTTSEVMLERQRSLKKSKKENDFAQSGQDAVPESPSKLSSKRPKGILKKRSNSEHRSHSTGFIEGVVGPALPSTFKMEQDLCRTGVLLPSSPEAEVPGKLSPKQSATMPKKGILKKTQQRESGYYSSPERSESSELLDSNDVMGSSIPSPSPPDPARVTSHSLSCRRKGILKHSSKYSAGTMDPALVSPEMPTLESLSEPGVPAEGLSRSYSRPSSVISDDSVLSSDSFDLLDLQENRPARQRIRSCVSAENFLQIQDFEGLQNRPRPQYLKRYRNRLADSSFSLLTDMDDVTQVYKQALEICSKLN
Excerpt: as §1

[3] = molecular target: 320 wild-type protein kinases (Homo sapiens, UniProt Q9UEW8); settings: kinase STK39, singlicate
Excerpt: as §1

[4] = molecular target: T3, 320 wild-type protein kinases (Homo sapiens, UniProt P54753); settings: singlicate
T3 sequence (P54753 34-998): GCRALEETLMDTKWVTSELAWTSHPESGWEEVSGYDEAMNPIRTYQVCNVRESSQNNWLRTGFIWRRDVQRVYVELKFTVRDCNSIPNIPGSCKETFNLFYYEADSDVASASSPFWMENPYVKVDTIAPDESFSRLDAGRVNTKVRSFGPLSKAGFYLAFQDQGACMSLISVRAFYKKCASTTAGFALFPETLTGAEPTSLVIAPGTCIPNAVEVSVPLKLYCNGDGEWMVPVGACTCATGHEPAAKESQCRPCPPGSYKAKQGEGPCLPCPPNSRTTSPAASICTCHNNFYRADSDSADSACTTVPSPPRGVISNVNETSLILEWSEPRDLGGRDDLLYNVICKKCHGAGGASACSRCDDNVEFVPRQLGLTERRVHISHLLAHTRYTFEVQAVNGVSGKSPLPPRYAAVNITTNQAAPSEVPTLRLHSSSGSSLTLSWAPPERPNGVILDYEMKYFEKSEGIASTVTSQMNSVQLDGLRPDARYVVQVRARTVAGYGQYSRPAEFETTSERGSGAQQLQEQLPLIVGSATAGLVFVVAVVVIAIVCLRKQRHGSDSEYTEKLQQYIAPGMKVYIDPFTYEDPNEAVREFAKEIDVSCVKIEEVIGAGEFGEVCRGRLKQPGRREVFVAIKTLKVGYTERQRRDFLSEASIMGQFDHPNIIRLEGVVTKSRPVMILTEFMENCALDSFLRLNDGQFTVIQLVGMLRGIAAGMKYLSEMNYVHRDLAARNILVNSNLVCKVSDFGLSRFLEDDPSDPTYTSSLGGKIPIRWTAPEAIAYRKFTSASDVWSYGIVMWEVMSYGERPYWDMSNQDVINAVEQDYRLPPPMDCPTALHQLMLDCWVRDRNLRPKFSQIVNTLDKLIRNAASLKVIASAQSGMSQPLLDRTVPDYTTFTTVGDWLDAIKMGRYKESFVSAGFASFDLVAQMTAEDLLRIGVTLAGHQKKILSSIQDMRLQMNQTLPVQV
Excerpt: as §1

[5] = molecular target: 320 wild-type protein kinases (Homo sapiens, UniProt Q13177); settings: singlicate
Excerpt: as §1

[6] = molecular target: T4, 320 wild-type protein kinases (Homo sapiens, UniProt Q96KB5); settings: PBK, singlicate
T4 sequence (Q96KB5 1-322): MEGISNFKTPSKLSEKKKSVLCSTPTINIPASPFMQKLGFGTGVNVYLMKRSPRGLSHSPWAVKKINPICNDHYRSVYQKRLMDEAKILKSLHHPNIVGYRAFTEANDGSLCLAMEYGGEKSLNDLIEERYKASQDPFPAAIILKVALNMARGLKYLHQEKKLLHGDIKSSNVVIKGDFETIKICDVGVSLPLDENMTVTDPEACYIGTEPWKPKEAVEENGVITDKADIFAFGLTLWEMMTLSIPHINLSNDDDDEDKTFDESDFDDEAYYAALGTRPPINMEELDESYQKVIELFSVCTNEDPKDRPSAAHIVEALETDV
Excerpt: as §1

[7] = molecular target: 320 wild-type protein kinases (Homo sapiens, UniProt P31749); settings: singlicate
Excerpt: as §1

320 wild-type protein kinases (Homo sapiens, UniProt P31749), sequence (P31749 whole entry): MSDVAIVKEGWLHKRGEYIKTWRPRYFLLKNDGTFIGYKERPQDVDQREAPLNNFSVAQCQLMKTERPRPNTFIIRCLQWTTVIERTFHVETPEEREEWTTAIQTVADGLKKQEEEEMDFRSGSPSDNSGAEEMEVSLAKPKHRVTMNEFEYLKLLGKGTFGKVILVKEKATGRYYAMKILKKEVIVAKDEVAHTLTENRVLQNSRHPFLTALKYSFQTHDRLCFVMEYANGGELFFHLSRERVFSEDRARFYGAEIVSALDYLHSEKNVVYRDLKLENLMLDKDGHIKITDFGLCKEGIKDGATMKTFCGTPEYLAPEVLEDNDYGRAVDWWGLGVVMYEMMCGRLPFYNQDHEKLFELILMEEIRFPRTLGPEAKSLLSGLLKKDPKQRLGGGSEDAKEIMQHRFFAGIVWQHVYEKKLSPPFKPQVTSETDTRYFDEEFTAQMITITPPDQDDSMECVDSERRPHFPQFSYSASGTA
320 wild-type protein kinases (Homo sapiens, UniProt Q13177), sequence (Q13177 whole entry): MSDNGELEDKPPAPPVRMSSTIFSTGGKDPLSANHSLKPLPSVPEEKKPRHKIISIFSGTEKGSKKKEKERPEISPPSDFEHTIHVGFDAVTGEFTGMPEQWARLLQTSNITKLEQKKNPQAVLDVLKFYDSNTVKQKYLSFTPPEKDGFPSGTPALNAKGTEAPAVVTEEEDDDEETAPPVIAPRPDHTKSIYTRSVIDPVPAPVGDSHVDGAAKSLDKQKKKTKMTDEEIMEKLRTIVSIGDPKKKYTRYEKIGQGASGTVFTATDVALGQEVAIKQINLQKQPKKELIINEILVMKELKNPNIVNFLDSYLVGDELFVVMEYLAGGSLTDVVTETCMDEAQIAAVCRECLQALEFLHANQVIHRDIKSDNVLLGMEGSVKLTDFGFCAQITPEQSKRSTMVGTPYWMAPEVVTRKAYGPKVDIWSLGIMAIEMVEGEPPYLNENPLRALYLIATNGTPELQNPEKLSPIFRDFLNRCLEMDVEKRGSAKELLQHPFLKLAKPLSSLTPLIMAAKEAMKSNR

| SMILES | Residual activity, SGK1 ([1]; assay conc. 1.0E-06 M) | Residual activity, SGK1 ([1]; assay conc. 1.0E-07 M) | Residual activity ([2]; ARK5, 1.0E-06 M) | Residual activity ([2]; ARK5, 1.0E-07 M) | Residual activity, STK39 ([3]; assay conc. 1.0E-06 M) | Residual activity, STK39 ([3]; assay conc. 1.0E-07 M) | Residual activity ([4]; EPHB3, 1.0E-06 M) | Residual activity ([4]; EPHB3, 1.0E-07 M) | Residual activity ([5]; PAK2, 1.0E-06 M) | Residual activity ([5]; PAK2, 1.0E-07 M) | Residual activity ([6]; 1.0E-06 M) | Residual activity ([6]; 1.0E-07 M) | Residual activity ([7]; AKT1 aa106-480, 1.0E-06 M) | Residual activity ([7]; AKT1 aa106-480, 1.0E-07 M) |
| --- | --- | --- | --- | --- | --- | --- | --- | --- | --- | --- | --- | --- | --- | --- |
| C#Cc1cc(Nc2ncnc3cc(I)ccc23)ccc1Cl [Compound 41] | 77 % of control | 103 % of control | 108 % of control | 110 % of control | 98 % of control | 106 % of control | 100 % of control | 110 % of control | 102 % of control | 108 % of control | 110 % of control | 98 % of control | 94 % of control | 96 % of control |
| C#Cc1cc(Nc2ncnc3cc(OC)c(OC)cc23)ccc1Cl [Compound 45] | 88 % of control | 99 % of control | 114 % of control | 104 % of control | 91 % of control | 102 % of control | 113 % of control | 99 % of control | 104 % of control | 101 % of control | 80 % of control | 91 % of control | 101 % of control | 100 % of control |
